Assay results: the supplement of paper PMC10307832

How the values were obtained:
Test in all cases: relative viability (nuclei count vs DMSO), 5 days (fraction); higher = more cells survive
[1] = compound: COc1cc2ncn(-c3cc(OCc4ccccc4C(F)(F)F)c(C(N)=O)s3)c2cc1OC + CC1(C)CCC(c2ccc(Cl)cc2)=C(CN2CCN(c3ccc(C(=O)NS(=O)(=O)c4ccc(N[C@H](CCN5CCOCC5)CSc5ccccc5)c(S(=O)(=O)C(F)(F)F)c4)cc3)CC2)C1 [Navitoclax] (partner 0.5 µM)
Procedure, shortened: (§1)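 One day after seeding in 1536-well plates, lung cancer cell lines were dosed by pin tool. Dosing was either single-drug or a fixed anchor-drug dose plus five library-drug doses (not always all listed) in √10 steps. After 5 days, nuclei were stained in one fix-and-stain step and counted on 4× images, and relative viability is the nuclei count of treated wells over that of vehicle wells, given as the median of duplicate plates.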

[2] = compound: COc1cc2ncn(-c3cc(OCc4ccccc4C(F)(F)F)c(C(N)=O)s3)c2cc1OC + C[C@]1(O)C[C@@H](c2nc(-c3ccc4ccc(-c5ccccc5)nc4c3)c3c(N)nccn32)C1 [Linsitinib] (partner 1 µM)
Procedure, shortened: as §1

[3] = compound: COc1cc2ncn(-c3cc(OCc4ccccc4C(F)(F)F)c(C(N)=O)s3)c2cc1OC + Nc1nc2[nH]cc(CCc3ccc(C(=O)N[C@@H](CCC(=O)O)C(=O)O)cc3)c2c(=O)[nH]1 [Pemetrexed] (partner 0.2 µM)
Procedure, shortened: as §1

[4] = compound: COc1cc2ncn(-c3cc(OCc4ccccc4C(F)(F)F)c(C(N)=O)s3)c2cc1OC + O=C(CCCCCCC(=O)Nc1ccccc1)NO [Vorinostat] (partner 1 µM)
Procedure, shortened: as §1

Row | Cell Line | relative viability ([1]; first compound 0.05 µM) | relative viability ([1]; first compound 0.1581 µM) | relative viability ([1]; first compound 0.5 µM) | relative viability ([1]; first compound 1.581 µM) | relative viability ([1]; first compound 5 µM) | relative viability ([2]; first compound 0.05 µM) | relative viability ([2]; first compound 0.1581 µM) | relative viability ([2]; first compound 0.5 µM) | relative viability ([2]; first compound 1.581 µM) | relative viability ([2]; first compound 5 µM) | relative viability ([3]; first compound 0.05 µM) | relative viability ([3]; first compound 0.1581 µM) | relative viability ([3]; first compound 0.5 µM) | relative viability ([3]; first compound 1.581 µM) | relative viability ([3]; first compound 5 µM) | relative viability ([4]; first compound 0.05 µM) | relative viability ([4]; first compound 0.1581 µM) | relative viability ([4]; first compound 0.5 µM) | relative viability ([4]; first compound 1.581 µM) | relative viability ([4]; first compound 5 µM)
1 | 201T | 1.26 | 1.2 | 1.19 | 0.902 | 0.326 | 1.05 | 0.983 | 0.971 | 0.46 | 0.262 | 0.355 | 0.319 | 0.29 | 0.303 | 0.192 | 1.01 | 0.994 | 0.815 | 0.283 | 0.195
2 | A-427 | 1.06 | 0.991 | 0.79 | 0.331 | 0.173 | 1.14 | 1.15 | 1.03 | 0.566 | 0.179 | 1.05 | 1.02 | 0.887 | 0.257 | 0.203 | 0.88 | 0.947 | 0.684 | 0.194 | 0.154
3 | ABC-1 | – | – | – | – | – | 0.862 | 0.874 | 0.582 | 0.302 | 0.218 | – | – | – | – | – | 1.59 | 0.849 | 0.58 | 0.369 | 0.305
4 | BEN | 0.0682 | 0.0597 | 0.0733 | 0.0523 | 0.0519 | 0.931 | 0.875 | 0.648 | 0.235 | 0.297 | 0.702 | 0.706 | 0.667 | 0.515 | 0.388 | 0.643 | 0.591 | 0.413 | 0.33 | 0.3
5 | CAL-12T | 1.09 | 1.11 | 0.573 | 0.231 | 0.148 | 0.775 | 0.746 | 0.423 | 0.246 | 0.228 | 0.706 | 1.19 | 0.621 | 0.212 | 0.165 | 0.674 | 0.558 | 0.268 | 0.141 | 0.159
6 | COR-L23 | 1 | 0.897 | 0.38 | 0.0788 | 0.091 | 0.887 | 0.761 | 0.332 | 0.0808 | 0.1 | 0.201 | 0.208 | 0.166 | 0.156 | 0.154 | 0.381 | 0.416 | 0.162 | 0.0758 | 0.0932
7 | COR-L 105 | 0.837 | 0.779 | 0.509 | 0.259 | 0.24 | 1.13 | 0.935 | 0.713 | 0.42 | 0.306 | 0.924 | 1.24 | 0.909 | 0.409 | 0.418 | 0.728 | 0.854 | 0.815 | 0.304 | 0.254
8 | Calu-6 | 0.693 | 0.513 | 0.136 | 0.0798 | 0.0903 | 0.976 | 0.843 | 0.257 | 0.0961 | 0.0852 | – | – | – | – | – | – | – | – | – | –
9 | ChaGo-K-1 | 0.964 | 0.535 | 0.939 | 0.378 | 0.273 | – | – | – | – | – | 0.263 | 0.251 | 0.232 | 0.175 | 0.153 | 0.775 | 0.721 | 0.629 | 0.232 | 0.162
10 | EKVX | 0.96 | 0.814 | 0.91 | 0.35 | 0.486 | 1.06 | 1.07 | 0.858 | 0.214 | 0.42 | 0.395 | 0.302 | 0.334 | 0.244 | 0.242 | 0.745 | 0.836 | 0.477 | 0.363 | 0.167
11 | EMC-BAC-2 | 1.2 | 1.14 | 1.07 | 0.766 | 0.178 | 0.906 | 0.843 | 0.696 | 0.509 | 0.164 | 0.459 | 0.446 | 0.441 | 0.338 | 0.311 | 0.899 | 0.535 | 0.305 | 0.223 | 0.158
12 | EPLC-272H | 1.12 | 0.982 | 0.255 | 0.0998 | 0.0968 | 1.12 | 1.15 | 0.533 | 0.11 | 0.11 | 0.25 | 0.206 | 0.104 | 0.121 | 0.206 | 0.175 | 0.181 | 0.0719 | 0.077 | 0.12
13 | H3255 | 0.558 | 0.314 | 0.363 | 0.125 | 0.101 | 0.858 | 0.962 | 0.533 | 0.248 | 0.228 | 0.556 | 0.602 | 0.552 | 0.332 | 0.341 | 0.806 | 0.492 | 0.627 | 0.606 | 0.481
14 | HARA | 1.18 | 1.06 | 0.531 | 0.26 | 0.0692 | 0.958 | 0.842 | 0.834 | 0.208 | 0.0806 | 0.242 | – | 0.24 | 0.176 | 0.126 | 0.358 | 0.421 | 0.237 | 0.0932 | 0.0592
15 | HCC-15 | 0.695 | 0.641 | 0.316 | 0.104 | 0.0943 | 0.865 | 0.828 | 0.557 | 0.14 | 0.13 | 0.23 | 0.215 | 0.174 | 0.156 | 0.13 | 0.618 | 0.769 | 0.349 | 0.139 | 0.127
16 | HCC-44 | 1 | 0.913 | 0.187 | 0.121 | 0.0869 | 0.773 | 0.621 | 0.55 | 0.141 | 0.109 | 0.633 | 0.625 | 0.685 | 0.338 | 0.342 | 1.14 | 1.03 | 0.852 | 0.331 | 0.247
17 | HCC-78 | 0.752 | 0.773 | 0.498 | 0.51 | 0.63 | 0.537 | 0.597 | 0.368 | 0.315 | 0.394 | 0.967 | 0.903 | 0.895 | 0.939 | 0.87 | 0.483 | 0.396 | 0.281 | 0.261 | 0.223
